Results on 1 substance are retold here after patent US20170065520A1, “STABLE LIPOSOMAL FORMULATIONS OF RAPAMYCIN AND RAPAMYCIN DERIVATIVES FOR TREATING CANCER” (Manli International Ltd, priority 2015, published 2017).

This data set in a line: In vitro drug release assay (dialysis tube, 50 kDal cut-off). The data set is classed as physicochemical. The conditions noted are these: control formulation (drug in 15% acetonitrile and 85% water), within 48 h. On the procedure:
An in vitro drug release assay was used to determine release profiles of umirolimus, sirolimus, and everolimus. Umirolimus-loaded liposomes were prepared as described above in EXAMPLE 1, and sirolimus-loaded and everolimus-loaded liposomes were prepared as described above in EXAMPLE 4.
For each drug, a control formulation was prepared containing 1.0 mg of drug in 5 mL of a solution containing 15% acetonitrile and 85% water. 5 mL of the control formulations and the liposomal formulations for each drug were loaded into separate dialysis tubes having a molecular weight cut-off of 50 kDal.
Each loaded dialysis tube was placed in an individual 50 mL tube containing 40 mL of release media (15% acetonitrile and 0.5% SDS). The release media in each tube was sampled after 1, 2, 5, 7, 24, 30, and 48 h and the drug concentration in the release media was determined by HPLC as described above in EXAMPLE 1. The cumulative drug release percentage versus release time was plotted for all samples. The results are shown in FIGS. 1, 2, and 3 for umirolimus, everolimus, and sirolimus, respectively.

With 40-alkoxyalkyl-rapamycin [umirolimus], the “starting amount of drug diffused out of the dialysis tubing” value was found to be 67%.
